Patent publication US10251408B2, “Catechin function enhancement method” (KYUSHU UNIVERSITY, NATIONAL UNIVERSITY CORPORATION, priority 2014, dated 2019)

Key:
[1] = system: tail suspension test-induced disuse amyotrophy in mice; experiment: Tail suspension test-induced disuse amyotrophy (quadriceps femoris weight); type: in vivo, mouse; conditions: C57BL/6J mice; 5 mg/kg intragastric once a day; tail suspension for 10 days from day 7; FIG. 4
Protocol: Male C57BL/6J mice at 12 weeks of age were divided into 5 groups such that the average body weight was equal in all groups, i.e., a GR (ground) group, a TS (tail suspension) group, an EGCG group, an eriodictyol group, and an EGCG+eriodictyol group. From the beginning of grouping, the GR and TS groups received physiological saline, the EGCG group received EGCG and the eriodictyol group received eriodictyol (5 mg/kg) by intragastric administration, while the EGCG+eriodictyol group received EGCG and eriodictyol (5 mg/kg) by intragastric administration through a sonde. For 7 days from the beginning of grouping, all the groups were kept under normal conditions, and the TS, EGCG, eriodictyol, and EGCG+eriodictyol groups were then subjected to a tail suspension test. After the tail suspension test for 10 days (at 17 days after initiation of the experiment), all the mice were sacrificed by abdominal aortic puncture under isoflurane anesthesia, and the quadriceps femoris was excised from each mouse and measured for its weight. Each sample was administered daily throughout the experimental period. […] At 10 days after starting the tail suspension test, the mice were sacrificed by abdominal aortic puncture under isoflurane anesthesia, and the quadriceps femoris was excised from each mouse and measured for its weight.

[2] = system: Human multiple myeloma cell line U266; experiment: Anticancer effect, viable cells by trypan blue assay (24-well plates, FIG. 14-19); type: cell-based; conditions: 5 μM each, 96 hours; for enhancement of the anticancer effect (viable cells) of EGCG: combined with EGCG; for enhancement of the anticancer effect (viable cells) of EGCG 3″Me: combined with EGCG 3″Me; for enhancement of the anticancer effect (viable cells) of GCG: combined with GCG (gallocatechin gallate)
Protocol: Human multiple myeloma cell line U266 was subcultured and maintained in RPMI 1640 medium supplemented with 10% fetal bovine serum (FCS) under conditions of 37° C. and water vapor-saturated 5% CO2. The cells were maintained in the logarithmic growth phase. The RPMI 1640 medium used for culture was prepared as follows: per liter of ultrapure water, RPMI 1640 medium (10.4 g), HEPES (2.38 g), injectable penicillin G potassium (100,000 units), streptomycin sulfate injectable (100 mg) and NaHCO3 (2.0 g) were suspended and then filter-sterilized. Then, the RPMI 1640 medium was supplemented with FCS and used for cell culture. Per liter of ultrapure water, NaCl (8.0 g), KCl (0.2 g), Na2HPO4 (1.15 g) and KH2PO4 (0.2 g) were dissolved to prepare PBS, which was then sterilized in an autoclave.
Eriodictyol and structural analogs thereof, i.e., naringenin and hesperetin, as well as glycosides thereof, i.e., eriocitrin, naringin and hesperidin were each adjusted to 5 mM with 100% dimethyl sulfoxide (DMSO) and stored at −30° C. EGCG and (−)-gallocatechin gallate (GCG) were each adjusted to 5 mM with ultrapure water and stored at −30° C. EGCG 3″Me was adjusted to 5 mM with 10% DMSO dH2O and stored at −30° C.
U266 adjusted to 5×10^4 cells/mL in RPMI 1640 containing 1% FCS, SOD (5 U/mL) and catalase (200 U/mL) was seeded in 24-well plates and cultured for 96 hours in the presence of EGCG and analogs thereof or eriodictyol and analogs thereof added at a final concentration of 5 μM each. After culture, viable cells were counted by trypan blue assay.
For statistical processing of the experimental results, Student's test was used and P<0.05 was considered statistically significant in comparison with control data in the vehicle group.

[3] = system: Human multiple myeloma cell line U266; experiment: Cancer cell death induction, viable cells by trypan blue assay (96-well plate, FIG. 9); type: cell-based; conditions: 96 hours, in combination with EGCG, EGCG 3″Me or green tea extract
Protocol: Human multiple myeloma cell line U266 was subcultured and maintained in RPMI 1640 medium supplemented with 10% FCS under conditions of 37° C. and water vapor-saturated 5% CO2. The cells were maintained in the logarithmic growth phase. The RPMI 1640 medium used for culture was prepared as follows: per liter of ultrapure water, RPMI 1640 medium (10.4 g), HEPES (2.38 g), injectable penicillin G potassium (100,000 units), streptomycin sulfate injectable (100 mg) and NaHCO3 (2.0 g) were suspended and then filter-sterilized.
The lemon peel extract used in the experiment was prepared as follows. Peels (100 g) were collected with a grater from 6 lemons and 100% EtOH (100 mL) was added thereto, followed by mashing with a mortar. The mashed mixture was further strained through gauze to remove fibers and then filtered by gravity using a #1 paper filter and a funnel to remove precipitates, followed by centrifugation at 12000×g to collect the supernatant. The resulting ethanol extract of lemon was evaporated with an evaporator to volatilize the solvent, thereby obtaining an ethanol-extracted lemon fraction. This ethanol-extracted lemon fraction was dissolved again in DMSO to give a lemon extract. […] After culture, viable cells were counted by trypan blue assay.
To evaluate the effect of combined use of EGCG or a structural analog thereof or an EGCG-containing naturally occurring product and eriodictyol or a structural analog thereof or an eriodictyol-containing naturally occurring product, human multiple myeloma cell line U266 was adjusted to 5×10^4 cells/mL and seeded in a 96-well plate, and then cultured for 96 hours in the presence of EGCG and eriodictyol added at a final concentration of 5 μM each. After culture for 96 hours, viable cells were counted by trypan blue assay.

| SMILES | effect on amyotrophy (quadriceps femoris weight) [1] | enhancement of the anticancer effect (viable cells) of EGCG [2] | enhancement of the anticancer effect (viable cells) of EGCG 3″Me [2] | enhancement of the anticancer effect (viable cells) of GCG [2] | enhancement of the anticancer effect (viable cells) of EGCG, EGCG 3″Me or a green tea extract [3] |
| --- | --- | --- | --- | --- | --- |
| O=C(O[C@@H]1Cc2c(O)cc(O)cc2O[C@@H]1c1cc(O)c(O)c(O)c1)c1cc(O)c(O)c(O)c1 [EGCG, epigallocatechin gallate] | no effect on amyotrophy |  |  |  |  |
| C[C@@H]1O[C@@H](OC[C@H]2O[C@@H](Oc3cc(O)c4c(c3)O[C@H](c3ccc(O)c(O)c3)CC4=O)[C@H](O)[C@@H](O)[C@@H]2O)[C@H](O)[C@H](O)[C@H]1O [eriocitrin] |  | remarkably enhance the anticancer effect | remarkably enhance the anticancer effect | remarkably enhance the anticancer effect |  |
| COc1ccc([C@@H]2CC(=O)c3c(O)cc(O)cc3O2)cc1O [hesperetin] |  | remarkably enhance the anticancer effect | remarkably enhance the anticancer effect | remarkably enhance the anticancer effect | remarkably enhance the anticancer effect |
| COc1ccc([C@@H]2CC(=O)c3c(O)cc(O[C@@H]4O[C@H](CO[C@@H]5O[C@@H](C)[C@H](O)[C@@H](O)[C@H]5O)[C@@H](O)[C@H](O)[C@H]4O)cc3O2)cc1O [hesperidin] |  | remarkably enhance the anticancer effect | remarkably enhance the anticancer effect | remarkably enhance the anticancer effect |  |
| O=C1C[C@@H](c2ccc(O)cc2)Oc2cc(O)cc(O)c21 [naringenin] |  | remarkably enhance the anticancer effect | remarkably enhance the anticancer effect | remarkably enhance the anticancer effect | remarkably enhance the anticancer effect |
| C[C@@H]1O[C@@H](O[C@H]2[C@H](Oc3cc(O)c4c(c3)O[C@H](c3ccc(O)cc3)CC4=O)O[C@H](CO)[C@@H](O)[C@@H]2O)[C@H](O)[C@H](O)[C@H]1O [naringin] |  | remarkably enhance the anticancer effect |  |  |  |
